Assay results from patent US5358951A, “Angiotensin II receptor blocking 2, 3, 6 substituted quinazolinones” (American Cyanamid Company, priority 1993, dated 1994).

System: vasopressor response of angiotensin II
Experiment: AII Challenge: antagonism of angiotensin II vasopressor response
Assay type: in vivo
Conditions: for inhibition in vivo at 3 mg/kg / inhibition in vivo at 5 mg/kg: Rattus norvegicus
How it was run: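 Percent antagonism is based on the systolic blood pressure rise (mmHg) to i.v. angiotensin II at 0.05 and 0.1 ug/kg. Each rat's own predose response was taken as 100%. Challenges were repeated from 30 to 300 min after i.v., i.p. or oral compound in cannulated conscious male SHR, 16-20 weeks old.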

[1] = 1 mg/kg P.O., AII 0.05 mcg/kg IV, 60 min post dose
[2] = 1 mg/kg P.O., AII 0.05 mcg/kg IV, 90 min post dose
[3] = 1 mg/kg P.O., AII 0.05 mcg/kg IV, 120 min post dose
[4] = 1 mg/kg P.O., AII 0.05 mcg/kg IV, 180 min post dose
[5] = 1 mg/kg P.O., AII 0.05 mcg/kg IV, 240 min post dose
[6] = 1 mg/kg P.O., AII 0.1 mcg/kg IV, 60 min post dose
[7] = 1 mg/kg P.O., AII 0.1 mcg/kg IV, 90 min post dose
[8] = 1 mg/kg P.O., AII 0.1 mcg/kg IV, 120 min post dose
[9] = 1 mg/kg P.O., AII 0.1 mcg/kg IV, 180 min post dose
[10] = 1 mg/kg P.O., AII 0.1 mcg/kg IV, 240 min post dose
[11] = 3 mg/kg I.V., AII 0.05 mcg/kg IV, 30 min post dose
[12] = 3 mg/kg I.V., AII 0.05 mcg/kg IV, 90 min post dose
[13] = 3 mg/kg I.V., AII 0.05 mcg/kg IV, 120 min post dose
[14] = 3 mg/kg I.V., AII 0.05 mcg/kg IV, 180 min post dose
[15] = 3 mg/kg I.V., AII 0.05 mcg/kg IV, 240 min post dose
[16] = 3 mg/kg I.V., AII 0.1 mcg/kg IV, 30 min post dose
[17] = 3 mg/kg I.V., AII 0.1 mcg/kg IV, 60 min post dose
[18] = 3 mg/kg I.V., AII 0.1 mcg/kg IV, 90 min post dose
[19] = 3 mg/kg I.V., AII 0.1 mcg/kg IV, 120 min post dose
[20] = 3 mg/kg I.V., AII 0.1 mcg/kg IV, 180 min post dose
[21] = 3 mg/kg I.V., AII 0.1 mcg/kg IV, 240 min post dose
[22] = 5 mg/kg P.O., AII 0.05 mcg/kg IV, 60 min post dose
[23] = 5 mg/kg P.O., AII 0.05 mcg/kg IV, 120 min post dose
[24] = 5 mg/kg P.O., AII 0.1 mcg/kg IV, 60 min post dose
[25] = iv, 0.5 h, 3 mg/kg I.V., AII 0.05 mcg/kg IV, 30 min post dose
[26] = iv, 0.5 h, 3 mg/kg I.V., AII 0.1 mcg/kg IV, 30 min post dose
[27] = iv, 1 h, 3 mg/kg I.V., AII 0.1 mcg/kg IV, 60 min post dose
[28] = iv, 2 h, 3 mg/kg I.V., AII 0.1 mcg/kg IV, 120 min post dose
[29] = iv, 3 h, 3 mg/kg I.V., AII 0.05 mcg/kg IV, 180 min post dose
[30] = iv, 3 h, 3 mg/kg I.V., AII 0.1 mcg/kg IV, 180 min post dose
[31] = iv, 4 h, 3 mg/kg I.V., AII 0.05 mcg/kg IV, 240 min post dose
[32] = iv, 4 h, 3 mg/kg I.V., AII 0.1 mcg/kg IV, 240 min post dose
[33] = iv, […], 3 mg/kg I.V., AII 0.05 mcg/kg IV, 90 min post dose
[34] = iv, […], 3 mg/kg I.V., AII 0.1 mcg/kg IV, 90 min post dose
[35] = po, 0.5 h, 5 mg/kg P.O., AII 0.05 mcg/kg IV, 30 min post dose
[36] = po, 1 h, 5 mg/kg P.O., AII 0.05 mcg/kg IV, 60 min post dose
[37] = po, 1 h, 5 mg/kg P.O., AII 0.1 mcg/kg IV, 60 min post dose
[38] = po, 2 h, 5 mg/kg P.O., AII 0.05 mcg/kg IV, 120 min post dose
[39] = po, 3 h, 5 mg/kg P.O., AII 0.05 mcg/kg IV, 180 min post dose
[40] = po, 3 h, 5 mg/kg P.O., AII 0.1 mcg/kg IV, 180 min post dose
[41] = po, […], 5 mg/kg P.O., AII 0.05 mcg/kg IV, 90 min post dose
[42] = po, […], 5 mg/kg P.O., AII 0.1 mcg/kg IV, 90 min post dose

CCCCc1nc2ccc([C@@]3(C)C[C@@H]4CCCN4O3)cc2c(=O)n1Cc1ccc(-c2ccccc2-c2nnn[nH]2)cc1 (relative stereo) [Example 58, Cis-(+/-)-2-Butyl-6-(hexahydro-2-methylpyrrolo[1,2-1,2-b]isoxazol-2-yl) -3-[[2'-(1H-tetrazol-5-yl) [1,1'-biphenyl]-4-yl]methyl]-4(3H)-quinazolinone]
% Inhibition [1]: 62%
Response Average Change [1]: 16 mmHg
% Inhibition [2]: 68%
Response Average Change [2]: 13.5 mmHg
% Inhibition [3]: 67%
Response Average Change [3]: 14 mmHg
% Inhibition [4]: 82%
Response Average Change [4]: 7.5 mmHg
% Inhibition [5]: 82%
Response Average Change [5]: 7.5 mmHg
% Inhibition [6]: 37%
Response Average Change [6]: 30 mmHg
% Inhibition [7]: 44%
Response Average Change [7]: 26.5 mmHg
% Inhibition [8]: 53%
Response Average Change [8]: 22.5 mmHg
% Inhibition [9]: 56%
Response Average Change [9]: 21 mmHg
% Inhibition [10]: 68%
Response Average Change [10]: 15 mmHg
Response Average Change [11]: 0 mmHg
Response Average Change (3 mg/kg I.V., AII 0.05 mcg/kg IV, 60 min post dose): 5 mmHg
Response Average Change [12]: 2.5 mmHg
Response Average Change [13]: 5 mmHg
Response Average Change [14]: 6.5 mmHg
Response Average Change [15]: 7.5 mmHg
Response Average Change [16]: 10 mmHg
Response Average Change [17]: 4 mmHg
Response Average Change [18]: 2.5 mmHg
Response Average Change [19]: 10 mmHg
Response Average Change [20]: 6.5 mmHg
Response Average Change [21]: 4 mmHg
% Inhibition [22]: 94%
Response Average Change [22]: 2.5 mmHg
Response Average Change [23]: 5 mmHg
Response Average Change (5 mg/kg P.O., AII 0.05 mcg/kg IV, 300 min post dose): 1 mmHg
% Inhibition [24]: 100%
Response Average Change [24]: 0 mmHg
inhibition in vivo at 3 mg/kg [25]: 100%
inhibition in vivo at 3 mg/kg [26]: 78%
inhibition in vivo at 3 mg/kg [27]: 91%
inhibition in vivo at 3 mg/kg [28]: 78%
inhibition in vivo at 3 mg/kg [29]: 83%
inhibition in vivo at 3 mg/kg [30]: 86%
inhibition in vivo at 3 mg/kg [31]: 81%
inhibition in vivo at 3 mg/kg [32]: 91%
inhibition in vivo at 3 mg/kg [33]: 94%
inhibition in vivo at 3 mg/kg [34]: 94%
inhibition in vivo at 3 mg/kg (po, 0.5 h, 3 mg/kg P.O., AII 0.05 mcg/kg IV, 30 min post dose): 75%
inhibition in vivo at 5 mg/kg [35]: 90%
inhibition in vivo at 3 mg/kg (po, 1 h, 3 mg/kg P.O., AII 0.05 mcg/kg IV, 60 min post dose): 92%
inhibition in vivo at 3 mg/kg (po, 1 h, 3 mg/kg P.O., AII 0.1 mcg/kg IV, 60 min post dose): 67%
inhibition in vivo at 5 mg/kg [36]: 94%
inhibition in vivo at 5 mg/kg [37]: 100%
inhibition in vivo at 3 mg/kg (po, 2 h, 3 mg/kg P.O., AII 0.05 mcg/kg IV, 120 min post dose): 67%
inhibition in vivo at 3 mg/kg (po, 2 h, 3 mg/kg P.O., AII 0.1 mcg/kg IV, 120 min post dose): 91%
inhibition in vivo at 5 mg/kg [38]: 88%
inhibition in vivo at 3 mg/kg (po, 3 h, 3 mg/kg P.O., AII 0.05 mcg/kg IV, 180 min post dose): 75%
inhibition in vivo at 3 mg/kg (po, 3 h, 3 mg/kg P.O., AII 0.1 mcg/kg IV, 180 min post dose): 74%
inhibition in vivo at 5 mg/kg [39]: 75%
inhibition in vivo at 5 mg/kg [40]: 89%
inhibition in vivo at 5 mg/kg (po, 4 h, 5 mg/kg P.O., AII 0.05 mcg/kg IV, 240 min post dose): 93%
inhibition in vivo at 3 mg/kg (po, 5 h, 3 mg/kg P.O., AII 0.05 mcg/kg IV, 300 min post dose): 57%
inhibition in vivo at 5 mg/kg (po, 5 h, 5 mg/kg P.O., AII 0.05 mcg/kg IV, 300 min post dose): 98%
inhibition in vivo at 5 mg/kg (po, 5 h, 5 mg/kg P.O., AII 0.1 mcg/kg IV, 300 min post dose): 84%
inhibition in vivo at 3 mg/kg (po, […], 3 mg/kg P.O., AII 0.05 mcg/kg IV, 90 min post dose): 75%
inhibition in vivo at 5 mg/kg [41]: 88%
inhibition in vivo at 5 mg/kg [42]: 84%

CCCCc1nc2ccc([C@@H]3C[C@H]4c5ccccc5CCN4O3)cc2c(=O)n1Cc1ccc(-c2ccccc2-c2nnn[nH]2)cc1 (relative stereo) [Example 63, Cis-2-Butyl-6-(1,5,6,10b-tetrahydro-2H-isoxazolo[3,2-a]isoquinolin-2-yl)-3-[[2'-(1H-tetrazol5-yl)[1,1'-biphenyl]-4-yl]methyl]-4(3H)-quinazolinone]
Response Average Change [11]: 10.5 mmHg
Response Average Change [12]: 10 mmHg
Response Average Change [13]: 10 mmHg
Response Average Change [14]: 17.5 mmHg
Response Average Change [15]: 12.5 mmHg
Response Average Change (3 mg/kg I.V., AII 0.05 mcg/kg IV, 300 min post dose): 23.5 mmHg
Response Average Change [16]: 10 mmHg
Response Average Change [17]: 15 mmHg
Response Average Change [18]: 17.5 mmHg
Response Average Change [19]: 17.5 mmHg
Response Average Change [20]: 22.5 mmHg
Response Average Change [21]: 23 mmHg
Response Average Change (3 mg/kg I.V., AII 0.1 mcg/kg IV, 300 min post dose): 25 mmHg
Response Average Change (3 mg/kg I.V., AII 0.5 mcg/kg IV, 60 min post dose): 10 mmHg
Response Average Change (5 mg/kg P.O., AII 0.05 mcg/kg IV, 30 min post dose): 22.5 mmHg
Response Average Change [22]: 30 mmHg
Response Average Change (5 mg/kg P.O., AII 0.05 mcg/kg IV, 90 min post dose): 20 mmHg
Response Average Change [23]: 16.5 mmHg
Response Average Change (5 mg/kg P.O., AII 0.05 mcg/kg IV, 180 min post dose): 20 mmHg
Response Average Change (5 mg/kg P.O., AII 0.1 mcg/kg IV, 30 min post dose): 35 mmHg
Response Average Change [24]: 42.5 mmHg
Response Average Change (5 mg/kg P.O., AII 0.1 mcg/kg IV, 90 min post dose): 34 mmHg
Response Average Change (5 mg/kg P.O., AII 0.1 mcg/kg IV, 120 min post dose): 32.5 mmHg
Response Average Change (5 mg/kg P.O., AII 0.1 mcg/kg IV, 180 min post dose): 24 mmHg
inhibition in vivo at 3 mg/kg [25]: 70%
inhibition in vivo at 3 mg/kg [26]: 73%
inhibition in vivo at 3 mg/kg [27]: 60%
inhibition in vivo at 3 mg/kg (iv, 1 h, 3 mg/kg I.V., AII 0.5 mcg/kg IV, 60 min post dose): 71%
inhibition in vivo at 3 mg/kg (iv, 2 h, 3 mg/kg I.V., AII 0.05 mcg/kg IV, 120 min post dose): 71%
inhibition in vivo at 3 mg/kg [28]: 53%
inhibition in vivo at 3 mg/kg [29]: 50%
inhibition in vivo at 3 mg/kg [30]: 40%
inhibition in vivo at 3 mg/kg [31]: 64%
inhibition in vivo at 3 mg/kg [32]: 39%
inhibition in vivo at 3 mg/kg (iv, 5 h, 3 mg/kg I.V., AII 0.05 mcg/kg IV, 300 min post dose): 33%
inhibition in vivo at 3 mg/kg (iv, 5 h, 3 mg/kg I.V., AII 0.1 mcg/kg IV, 300 min post dose): 33%
inhibition in vivo at 3 mg/kg [33]: 71%
inhibition in vivo at 3 mg/kg [34]: 53%
inhibition in vivo at 5 mg/kg [35]: 49%
inhibition in vivo at 5 mg/kg (po, 0.5 h, 5 mg/kg P.O., AII 0.1 mcg/kg IV, 30 min post dose): 18%
inhibition in vivo at 5 mg/kg [36]: 32%
inhibition in vivo at 5 mg/kg [37]: 0%
inhibition in vivo at 5 mg/kg [38]: 63%
inhibition in vivo at 5 mg/kg (po, 2 h, 5 mg/kg P.O., AII 0.1 mcg/kg IV, 120 min post dose): 24%
inhibition in vivo at 5 mg/kg [39]: 55%
inhibition in vivo at 5 mg/kg [40]: 44%
inhibition in vivo at 5 mg/kg [41]: 55%
inhibition in vivo at 5 mg/kg [42]: 20%
